In US10501482B2, “Compounds for treating spinal muscular atrophy” (Hoffmann-La Roche Inc., priority 2013, dated 2019):
Structures can show the parent of a compound that is named as a salt.

Test system: SMN protein
Test: SMN protein assay (HTRF) in cultured SMA patient fibroblast cells
Type: cell-based
Settings: SMA Type 1 human fibroblasts GM03813, 48 hours; for EC1.5x SMN protein (EC1.5x concentration for SMN protein expression): 7-point concentration curve, concentration giving 1.5 times SMN protein vs vehicle; for max. fold increase (maximum fold increase of SMN protein): 7-point concentration data, fold vs vehicle control
Method: The SMN HTRF (homogeneous time resolved fluorescence) assay is used to quantify the level of SMN protein in SMA patient fibroblast cells treated with test compounds.
Cells are thawed and cultured in DMEM-10% FBS for 72 hours. Cells are trypsinized, counted and re-suspended to a concentration of 25,000 cells/mL in DMEM-10% FBS. The cell suspensions are plated at 5,000 cells per well in a 96 well microtiter plate and incubated for 3 to 5 hours. […] 1 μL of test compound solution is transferred to cell-containing wells and cells are incubated for 48 hours in a cell culture incubator (37° C., 5% CO2, 100% relative humidity). Triplicate samples are set up for each test compound concentration. After 48 hours, the supernatant is removed from the wells and 25 μL of the RIPA lysis buffer, containing protease inhibitors, is added to the wells and incubated with shaking at room temperature for 1 hour. 25 μL of the diluent is added and then 35 μL of the resulting lysate is transferred to a 384-well plate, where each well contains 5 μL of the antibody solution (1:100 dilution of anti-SMN d2 and anti-SMN kryptate in SMN reconstitution buffer). The plate is centrifuged for 1 minute to bring the solution to the bottom of the wells, then incubated overnight at room temperature. Fluorescence for each well of the plate at 665 nm and 620 nm is measured on an EnVision multilabel plate reader (Perkin-Elmer).
The normalized fluorescence signal is calculated for each sample, Blank and vehicle control well by dividing the signal at 665 nm by the signal at 620 nm. Normalizing the signal accounts for possible fluorescence quenching due to the matrix effect of the lysate. The ΔF value (a measurement of SMN protein abundance as a percent value) for each sample well is calculated by subtracting the normalized average fluorescence for the Blank control wells from the normalized fluorescence for each sample well, then dividing this difference by the normalized average fluorescence for the Blank control wells and multiplying the resulting value by 100. The ΔF value for each sample well represents the SMN protein abundance from test compound-treated samples. The ΔF value for each sample well is divided by the ΔF value for the vehicle control wells to calculate the fold increase in SMN protein abundance relative to the vehicle control. Table 3 provides EC1.5x concentrations for SMN protein expression that was obtained from the 7-point concentration data generated according to the above procedure for particular compounds of the present invention.
Table 4 provides the maximum fold increase of SMN protein that was obtained from the 7-point concentration data generated according to the above procedure for particular compounds of the present invention

| Structure (SMILES) | EC1.5x SMN protein (EC1.5x concentration for SMN protein expression) [µM] | max. fold increase (maximum fold increase of SMN protein) |
| --- | --- | --- |
| Cc1nc2c(F)cc(NC(=O)c3ccc(N4CCN5CCC[C@H]5C4)cc3F)cc2o1 [Example 33, (S)-2-Fluoro-N-(4-fluoro-2-methyl-benzooxazol-6-yl)-4-(S)-hexahydro-pyrrolo[1,2-a]-pyrazin-2-yl-benzamide] | 0.5703 | 1.7541 |
| Cc1cn2cc(NC(=O)c3ccc(N4CCNCC4)nc3)cc(F)c2n1 [Example 41, N-(8-tluoro-2-methylimidazo-[1,2-a]pyridin-6-yl)-6-(piperazin-1-yl)nicotinamide dihydrochloride] | 0.0508 | 1.7973 |
| CCOc1cc(N2CCNCC2)ncc1C(=O)Nc1cc(F)c2nc(C)cn2c1 [Example 70, 4-ethoxy-N-(8-fluoro-2-methylimidazo[1,2-a]pyridin-6-yl)-6-(piperazin-1-yl)nicotinamide] | 0.0187 | 1.933 |
